Experimental data from patent US6831092B1 (priority 1999, dated 2004).
Like-named read-outs stand apart in the source and are kept apart here.

What was measured:
[1] = test system: fungi of cucumber downy mildew; assay: Test on preventive effect against cucumber downy mildew; type: in vivo, fungi of cucumber downy mildew on cucumber (cultivar: Suyo)
Source text: Test on Preventive Effect Against Cucumber Downy Mildew
Cucumber (cultivar: Suyo) was cultivated in a polyethylene pot having a diameter of 7.5 cm, and when the cucumber reached a two-leaf stage, two seedlings of the cucumber were sprayed with a drug solution having predetermined concentrations of sample compounds in an amount of 1, 000 l/ha by a spray gun. On the next day after the treatment, the cucumber was sprayed and inoculated with a zoosporangia suspension of fungi of cucumber downy mildew, and the cucumber was kept in a moist chamber at 20° C. for 18 hours. Then, it was kept in a constant temperature chamber of 20° C. for from 6 to 7 days, and the average area of lesions on the first leaves of the two seedlings was examined to find the incidence according to the following formula. Here, the average area of lesions in the non-treated plot was obtained in the same manner as the treated plot, except that the cucumber was sprayed with water instead of the drug solution by a spray gun. […]
a: Average area of lesions in the treated plot b: Average area of lesions in the non-treated plot
Further, the theoretical value can be calculated from the following Colby's formula:
Theoretical value=(X×Y)/100
X: Incidence (%) in the case of treatment with the compound No. 1 alone Y: Incidence (%) in the case of treatment with the compound a, b, c or d alone When the experimental values are lower than the theoretical values by Colby's formula, the pesticidal composition of the present invention has a synergistic effect of controlling pests. The theoretical values by Colby's formula in such cases are shown in parenthesis ( ) in Tables 1 to 4.

[2] = test system: fungi of tomato late blight; type: in vivo, fungi of tomato late blight on tomato (cultivar: Ponderosa)

## Cc1ccc(-c2c(Cl)nc(C#N)n2S(=O)(=O)N(C)C)cc1 [Compd. No. 1, 4-chloro-2-cyano-1-dimethylsulfamoyl-5-(4-methylphenyl)imidazole]
[1]; Compd. No. 1 0.06 ppm alone (Compd. d 0 ppm), Table 4
  Incidence of cucumber downy mildew: 85%
[1]; Compd. No. 1 0.062 ppm alone (Compd. a 0 ppm), Table 1
  Incidence of cucumber downy mildew: 87.6%
[1]; Compd. No. 1 0.062 ppm alone (Compd. b 0 ppm), Table 2
  Incidence of cucumber downy mildew: 84.6%
[1]; Compd. No. 1 0.062 ppm alone (Compd. c 0 ppm), Table 3
  Incidence of cucumber downy mildew: 25.4%
[1]; Compd. No. 1 0.125 ppm alone (Compd. a 0 ppm), Table 1
  Incidence of cucumber downy mildew: 20.5%
[1]; Compd. No. 1 0.125 ppm alone (Compd. b 0 ppm), Table 2
  Incidence of cucumber downy mildew: 56.7%
[1]; Compd. No. 1 0.125 ppm alone (Compd. c 0 ppm), Table 3
  Incidence of cucumber downy mildew: 2.5%
[1]; Compd. No. 1 0.25 ppm alone (Compd. a 0 ppm), Table 1
  Incidence of cucumber downy mildew: 5.1%
[1]; Compd. No. 1 0.25 ppm alone (Compd. c 0 ppm), Table 3
  Incidence of cucumber downy mildew: 2.5%
[1]; Compd. No. 1 0.25 ppm alone (Compd. d 0 ppm), Table 4
  Incidence of cucumber downy mildew: 5.0%
[1]; Compd. No. 1 0.5 ppm alone (Compd. d 0 ppm), Table 4
  Incidence of cucumber downy mildew: 2.5%
[1]; Compd. No. 1 1 ppm alone (Compd. d 0 ppm), Table 4
  Incidence of cucumber downy mildew: 0%
[2]; Compd. No. 1 0.062 ppm alone (Compd. a 0 ppm), Table 5
  Incidence of tomato late blight: 91.3%
[2]; Compd. No. 1 0.062 ppm alone (Compd. b 0 ppm), Table 6
  Incidence of tomato late blight: 90.6%
[2]; Compd. No. 1 0.062 ppm alone (Compd. c 0 ppm), Table 7
  Incidence of tomato late blight: 65.6%
[2]; Compd. No. 1 0.125 ppm alone (Compd. c 0 ppm), Table 7
  Incidence of tomato late blight: 37.5%
[2]; Compd. No. 1 0.125 ppm alone (Compd. d 0 ppm), Table 8
  Incidence of tomato late blight: 100%
[2]; Compd. No. 1 0.25 ppm alone (Compd. a 0 ppm), Table 5
  Incidence of tomato late blight: 25.6%
[2]; Compd. No. 1 0.25 ppm alone (Compd. b 0 ppm), Table 6
  Incidence of tomato late blight: 78.1%
[2]; Compd. No. 1 0.25 ppm alone (Compd. c 0 ppm), Table 7
  Incidence of tomato late blight: 21.9%
[2]; Compd. No. 1 0.25 ppm alone (Compd. d 0 ppm), Table 8
  Incidence of tomato late blight: 100%
[2]; Compd. No. 1 0.50 ppm alone (Compd. b 0 ppm), Table 6
  Incidence of tomato late blight: 50.0%
[2]; Compd. No. 1 0.50 ppm alone (Compd. c 0 ppm), Table 7
  Incidence of tomato late blight: 6.3%
[2]; Compd. No. 1 0.5 ppm alone (Compd. d 0 ppm), Table 8
  Incidence of tomato late blight: 83.4%
[2]; Compd. No. 1 1.125 ppm alone (Compd. a 0 ppm), Table 5
  Incidence of tomato late blight: 69.2%
[2]; Compd. No. 1 1.125 ppm alone (Compd. b 0 ppm), Table 6
  Incidence of tomato late blight: 87.5%

## CSC1=N[C@@](C)(c2ccccc2)C(=O)N1Nc1ccccc1 [Compd. a, (S)-5-methyl-2-methylthio-5-phenyl-3-phenylamino-3.5-dihydroimidazole-4-one]
[1]; Compd. a 0.25 ppm alone (Compd. No. 1 0 ppm), Table 1
  Incidence of cucumber downy mildew: 82.1%
[1]; Compd. a 0.5 ppm alone (Compd. No. 1 0 ppm), Table 1
  Incidence of cucumber downy mildew: 66.7%
[1]; Compd. a 1 ppm alone (Compd. No. 1 0 ppm), Table 1
  Incidence of cucumber downy mildew: 12.8%
[2]; Compd. a 0.062 ppm alone (Compd. No. 1 0 ppm), Table 5
  Incidence of tomato late blight: 100%
[2]; Compd. a 0.125 ppm alone (Compd. No. 1 0 ppm), Table 5
  Incidence of tomato late blight: 97.2%
[2]; Compd. a 0.25 ppm alone (Compd. No. 1 0 ppm), Table 5
  Incidence of tomato late blight: 94.4%
[2]; Compd. a 0.5 ppm alone (Compd. No. 1 0 ppm), Table 5
  Incidence of tomato late blight: 66.1%
[2]; Compd. a 1 ppm alone (Compd. No. 1 0 ppm), Table 5
  Incidence of tomato late blight: 53.5%

## Cc1ccc(C(C)NC(=O)[C@@H](NC(=O)OC(C)C)C(C)C)cc1 (stereo partly drawn) [Compd. b, isopropyl 2-methyl-1-((1-p-tolylethyl)carbamoyl)-(S)-propylcarbamate]
[1]; Compd. b 2 ppm alone (Compd. No. 1 0 ppm), Table 2
  Incidence of cucumber downy mildew: 87.6%
[1]; Compd. b 4 ppm alone (Compd. No. 1 0 ppm), Table 2
  Incidence of cucumber downy mildew: 67.0%
[1]; Compd. b 8 ppm alone (Compd. No. 1 0 ppm), Table 2
  Incidence of cucumber downy mildew: 46.4%
[1]; Compd. b 16 ppm alone (Compd. No. 1 0 ppm), Table 2
  Incidence of cucumber downy mildew: 15.5%
[2]; Compd. b 1 ppm alone (Compd. No. 1 0 ppm), Table 6
  Incidence of tomato late blight: 100%
[2]; Compd. b 4 ppm alone (Compd. No. 1 0 ppm), Table 6
  Incidence of tomato late blight: 71.9%
[2]; Compd. b 8 ppm alone (Compd. No. 1 0 ppm), Table 6
  Incidence of tomato late blight: 46.9%

## CCC(C)(NC(=O)c1cc(Cl)c(C)c(Cl)c1)C(=O)CCl (centres unmarked) [Compd. c, 3.5-dichloro-N-(3-chloro-1-ethyl-1-methyl-2-oxopropyl)-4-methylbenzamide]
[1]; Compd. c 0.5 ppm alone (Compd. No. 1 0 ppm), Table 3
  Incidence of cucumber downy mildew: 95.8%
[1]; Compd. c 1 ppm alone (Compd. No. 1 0 ppm), Table 3
  Incidence of cucumber downy mildew: 71.2%
[1]; Compd. c 2 ppm alone (Compd. No. 1 0 ppm), Table 3
  Incidence of cucumber downy mildew: 61.0%
[2]; Compd. c 1 ppm alone (Compd. No. 1 0 ppm), Table 7
  Incidence of tomato late blight: 62.5%
[2]; Compd. c 4 ppm alone (Compd. No. 1 0 ppm), Table 7
  Incidence of tomato late blight: 62.5%
[2]; Compd. c 8 ppm alone (Compd. No. 1 0 ppm), Table 7
  Incidence of tomato late blight: 31.3%

## CCNc1nc(CC)c(C(=O)NC(C#N)c2cccs2)s1 (centres unmarked) [Compd. d, N-(a-cyano-2-thienyl)-4-ethyl-2-(ethylamino)-5-thiazole carboxyamide]
[1]; Compd. d 1 ppm alone (Compd. No. 1 0 ppm), Table 4
  Incidence of cucumber downy mildew: 100%
[1]; Compd. d 8 ppm alone (Compd. No. 1 0 ppm), Table 4
  Incidence of cucumber downy mildew: 15%
[1]; Compd. d 16 ppm alone (Compd. No. 1 0 ppm), Table 4
  Incidence of cucumber downy mildew: 20%
[2]; Compd. d 4 ppm alone (Compd. No. 1 0 ppm), Table 8
  Incidence of tomato late blight: 75%
[2]; Compd. d 8 ppm alone (Compd. No. 1 0 ppm), Table 8
  Incidence of tomato late blight: 29.2%
[2]; Compd. d 16 ppm alone (Compd. No. 1 0 ppm), Table 8
  Incidence of tomato late blight: 16.5%
